In assay [1] the target is T1, B1R receptor of the rat (Rattus norvegicus, UniProt P97583).
T1 construct: host or cells: CHO K1 cells (Chinese hamster ovary), stably transfected
T1 sequence (P97583 1-337): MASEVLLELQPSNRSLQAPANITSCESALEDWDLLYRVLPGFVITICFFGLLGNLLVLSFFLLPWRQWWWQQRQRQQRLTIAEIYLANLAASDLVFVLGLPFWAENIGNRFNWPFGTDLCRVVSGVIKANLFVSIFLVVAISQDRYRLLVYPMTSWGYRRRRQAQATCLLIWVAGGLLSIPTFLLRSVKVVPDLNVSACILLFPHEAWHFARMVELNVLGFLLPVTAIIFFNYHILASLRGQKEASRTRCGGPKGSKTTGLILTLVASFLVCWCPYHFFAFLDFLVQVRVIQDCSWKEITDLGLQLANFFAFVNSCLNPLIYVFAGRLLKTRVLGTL
As to the kind of experiment: Functional study on the bradykinin receptor 1 (B1R), FLIPR Ca2+ assay, rB1R cells. Format: cell-based. To be noted: agonist Des-Arg9-bradykinin 100 nM, % inhibition compared with the maximum achievable inhibition; for inhibition at 10 µM: CHO-K1, test substance 10 μM, read-out: B1R Antagonism, rat [10 μM] % Inhibition. The procedure, abridged:
(§1)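 CHO K1 cells stably expressing human or rat B1R, Fluo-4-loaded; test compound 10 μM added first (activation % vs agonist), then after 10 min 0.5 nM Lys-Des-Arg9-bradykinin (human) or 100 nM Des-Arg9-bradykinin (rat). Ca2+ peak fluorescence by FLIPR; % inhibition relative to maximum achievable inhibition.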

Assay [2] addresses T2, human B1R receptor (Homo sapiens, UniProt P46663).
T2 construct: host or cells: CHO K1 cells (Chinese hamster ovary), stably transfected
T2 sequence (P46663 1-353): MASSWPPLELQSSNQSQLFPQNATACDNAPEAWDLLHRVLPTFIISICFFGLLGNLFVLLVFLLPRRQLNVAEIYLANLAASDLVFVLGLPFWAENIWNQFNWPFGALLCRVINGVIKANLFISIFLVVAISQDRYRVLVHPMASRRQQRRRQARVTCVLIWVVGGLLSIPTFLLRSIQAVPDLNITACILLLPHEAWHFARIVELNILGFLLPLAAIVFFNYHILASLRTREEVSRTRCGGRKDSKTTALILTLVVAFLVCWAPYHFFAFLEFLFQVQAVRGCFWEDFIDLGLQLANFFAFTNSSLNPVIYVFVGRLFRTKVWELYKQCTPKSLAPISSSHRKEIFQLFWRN
As to the kind of experiment: Functional study on the bradykinin receptor 1 (B1R), FLIPR Ca2+ assay, hB1R cells. Format: cell-based. To be noted: agonist Lys-Des-Arg9-bradykinin 0.5 nM, % inhibition compared with the maximum achievable inhibition; for inhibition at 10 µM: CHO-K1, test substance 10 μM, read-out: B1R Antagonism, human [10 μM] % Inhibition. The procedure, abridged: as §1

Usually inhibition stands for the relative decrease from the control value, in per cent.

Regarding `COc1cc(C)c(S(=O)(=O)N2CCCCC2COCC(=O)N2CCN(C)CC2c2ccccc2)c(C)c1` (stereo not shown) [Example 388, 2-((1-(4-methoxy-2,6-dimethylphenylsulfonyl)piperidin-2-yl)methoxy)-1-(4-methyl-2-phenylpiperazin-1-yl)ethanone], the inhibition at 10 µM in assay [1] is 101%; in assay [2] it was 22.9%.
In the case of `O=C(COCC1CCCCN1S(=O)(=O)c1c(Cl)cc(Cl)cc1Cl)N1CCC(c2cccnc2)C1` (stereo not shown) [Example 389], the “B1R Antagonism, rat [10 μM] % Inhibition” value in assay [1] (test substance 10 μM, rB1R CHO K1 cells) was found to be 100.49%. Further, in assay [2] (test substance 10 μM, hB1R CHO K1 cells), the “B1R Antagonism, human [10 μM] % Inhibition” value is on record as 100.51%.
As for `O=C(COCC1CCCCN1S(=O)(=O)c1c(Cl)cc(Cl)cc1Cl)N1CCC(c2ccncc2)C1` (stereo not shown) [Example 390, 1-(3-(pyridin-4-yl)pyrrolidin-1-yl)-2-((1-(2,4,6-trichlorophenylsulfonyl)piperidin-2-yl)methoxy)ethanone], the inhibition at 10 µM in assay [1] came out at 99.8%; in assay [2] it was 103%.
Consider `CN(CCc1ccncc1)C(=O)COCC1CCCCN1S(=O)(=O)c1c(Cl)cc(Cl)cc1Cl` (stereo not shown) [Example 391, N-methyl-N-(2-(pyridin-4-yl)ethyl)-2-((1-(2,4,6-trichlorophenylsulfonyl)piperidin-2-yl)methoxy)acetamide], for which the inhibition at 10 µM in assay [1] is 102%; in assay [2] it was 97.8%.
As for `CN(C(=O)COCC1CCCCN1S(=O)(=O)c1c(Cl)cc(Cl)cc1Cl)C(CN1CCCC1)c1ccccc1` (stereo not shown) [Example 392, N-methyl-N-(1-phenyl-2-(pyrrolidin-1-yl)ethyl)-2-((1-(2,4,6-trichlorophenylsulfonyl)piperidin-2-yl)methoxy)acetamide], the inhibition at 10 µM in assay [1] came to 99.1%; in assay [2] it was 101%.
`CN1CCN(C(=O)COCC2CCCCN2S(=O)(=O)c2c(Cl)cc(Cl)cc2Cl)CC1` (stereo not shown) [Example 393, 1-(4-methylpiperazin-1-yl)-2-((1-(2,4,6-trichlorophenylsulfonyl)piperidin-2-yl)methoxy)ethanone]: the inhibition at 10 µM in assay [1] was 101%; in assay [2], 104%.
For the molecule `O=C(COCC1CCCCN1S(=O)(=O)c1c(Cl)cc(Cl)cc1Cl)NCc1ccncc1` (stereo not shown) [Example 394, N-(pyridin-4-ylmethyl)-2-((1-(2,4,6-trichlorophenylsulfonyl)piperidin-2-yl)methoxy)acetamide], the inhibition at 10 µM in assay [1] worked out at 99.1%; in assay [2] it was 31.5%.
As for `COc1cc(C)c(S(=O)(=O)N2CCCCC2COCC(=O)Nc2cccnc2N2CCOCC2)c(C)c1` (stereo not shown) [Example 395, 2-((1-(4-methoxy-2,6-dimethylphenylsulfonyl)piperidin-2-yl)methoxy)-N-(2-morpholinopyridin-3-yl)acetamide], the figures for the inhibition at 10 µM in assay [1] and in assay [2] were 100% and 12.6%, respectively.
The like results for `COc1cc(C)c(S(=O)(=O)N2CCCCC2COCC(=O)Nc2ccc(N3CCOCC3)nc2)c(C)c1` (stereo not shown) [Example 396, 2-((1-(4-methoxy-2,6-dimethylphenylsulfonyl)piperidin-2-yl)methoxy)-N-(6-morpholinopyridin-3-yl)acetamide] were, in that order, 80.6% and 24.7%.
As for `COc1cc(C)c(S(=O)(=O)N2CCCCC2COCC(=O)N2CCC(c3nc4cc(C)ccc4[nH]3)CC2)c(C)c1` (stereo not shown) [Example 397, 2-((1-(4-methoxy-2,6-dimethylphenylsulfonyl)piperidin-2-yl)methoxy)-1-(4-(5-methyl-1H-benzo[d]imidazol-2-yl)piperidin-1-yl)ethanone], the inhibition at 10 µM in assay [1] came to 101%; in assay [2], 97.2%.
On to `COc1cc(C)c(S(=O)(=O)N2CCCCC2COCC(=O)N2CCCC2c2ccc(N(C)C)cc2)c(C)c1` (stereo not shown) [Example 398, 1-(2-(4-(dimethylamino)phenyl)pyrrolidin-1-yl)-2-((1-(4-methoxy-2,6-dimethylphenylsulfonyl)piperidin-2-yl)methoxy)ethanone], for which the inhibition at 10 µM stood at 98% in assay [1] and 59.8% in assay [2].
Regarding `COc1cc(C)c(S(=O)(=O)N2CCCCC2COCC(=O)N2CCCC2CN2CCCCC2)c(C)c1` (stereo not shown) [Example 399, 2-((1-(4-methoxy-2,6-dimethylphenylsulfonyl)piperidin-2-yl)methoxy)-1-(2-(piperidin-1-ylmethyl)pyrrolidin-1-yl)ethanone], the inhibition at 10 µM in assay [1] stood at 102%; in assay [2], 93%.
As for `COc1cc(C)c(S(=O)(=O)N2CCCCC2COCC(=O)N2CCCCCC2c2ccc(N(C)C)cc2)c(C)c1` (stereo not shown) [Example 400, 1-(2-(4-(dimethylamino)phenyl)azepan-1-yl)-2-((1-(4-methoxy-2,6-dimethylphenylsulfonyl)piperidin-2-yl)methoxy)ethanone], the inhibition at 10 µM in assay [1] is 102%; in assay [2] it was 62%.
`COc1cc(C)c(S(=O)(=O)N2CCCCC2COCC(=O)NCCN2CCN(Cc3ccccc3)CC2)c(C)c1` (stereo not shown) [Example 401, N-(2-(4-benzylpiperazin-1-yl)ethyl)-2-((1-(4-methoxy-2,6-dimethylphenylsulfonyl)piperidin-2-yl)methoxy)acetamide]: the inhibition at 10 µM in assay [1] came to 95.6%; in assay [2] it was 90.8%.
`COc1cc(C)c(S(=O)(=O)N2CCCCC2COCC(=O)N2CCN(c3nc(-c4ccccc4)cs3)CC2)c(C)c1` (stereo not shown) [Example 402, 2-((1-(4-methoxy-2,6-dimethylphenylsulfonyl)piperidin-2-yl)methoxy)-1-(4-(4-phenylthiazol-2-yl)piperazin-1-yl)ethanone]: the inhibition at 10 µM in assay [1] stood at 101%; in assay [2], 47.1%.
On to `Cc1ccc(N2CCN(C(=O)COCC3CCCCN3S(=O)(=O)c3c(Cl)cccc3Cl)CC2)cc1C` (stereo not shown) [Example 403, 2-((1-(2,6-dichlorophenylsulfonyl)piperidin-2-yl)methoxy)-1-(4-(3,4-dimethylphenyl)piperazin-1-yl)ethanone], for which the inhibition at 10 µM in assay [1] was 100%; in assay [2], 101%.
Consider `O=C(COCC1CCCCN1S(=O)(=O)c1c(Cl)cccc1Cl)N1CCN(c2ccc(Cl)c(Cl)c2)CC1` (stereo not shown) [Example 404, 1-(4-(3,4-dichlorophenyl)piperazin-1-yl)-2-((1-(2,6-dichlorophenylsulfonyl)piperidin-2-yl)methoxy)ethanone], for which the inhibition at 10 µM in assay [1] was determined as 98.5%; in assay [2], 55.1%.
Regarding `O=C(COCC1CCCCN1S(=O)(=O)c1c(Cl)cccc1Cl)N1CCN(Cc2ccc(Cl)c(Cl)c2)CC1` (stereo not shown) [Example 405, 1-(4-(3,4-dichlorobenzyl)piperazin-1-yl)-2-((1-(2,6-dichlorophenylsulfonyl)piperidin-2-yl)methoxy)ethanone], the inhibition at 10 µM in assay [1] came out at 100%; in assay [2], 98.6%.
As for `O=C(COCC1CCCCN1S(=O)(=O)c1c(Cl)cccc1Cl)N1CCN(Cc2ccc(Br)cc2)CC1` (stereo not shown) [Example 406, 1-(4-(4-bromobenzyl)piperazin-1-yl)-2-((1-(2,6-dichlorophenylsulfonyl)piperidin-2-yl)methoxy)ethanone], the inhibition at 10 µM in assay [1] is 100%; in assay [2] it was 103%.
The like results for `O=C(COCC1CCCCN1S(=O)(=O)c1c(Cl)cccc1Cl)N1CCN(Cc2ccc(Cl)cc2)CC1` (stereo not shown) [Example 407, 1-(4-(4-chlorobenzyl)piperazin-1-yl)-2-((1-(2,6-dichlorophenylsulfonyl)piperidin-2-yl)methoxy)ethanone] were, in that order, 99% and 102%.
Turning to `Cc1ccc(CN2CCN(C(=O)COCC3CCCCN3S(=O)(=O)c3c(Cl)cccc3Cl)CC2)cc1` (stereo not shown) [Example 408, 2-((1-(2,6-dichlorophenylsulfonyl)piperidin-2-yl)methoxy)-1-(4-(4-methylbenzyl)piperazin-1-yl)ethanone], the values for the inhibition at 10 µM in assay [1] and in assay [2] were 99.8% and 102%, respectively.
On the same counts, the results for `COc1cc(C)c(S(=O)(=O)N2CCCCC2COCC(=O)Nc2ccc(N3CCCC3)cc2)c(C)c1` (stereo not shown) [Example 409, 2-((1-(4-methoxy-2,6-dimethylphenylsulfonyl)piperidin-2-yl)methoxy)-N-(4-(pyrrolidin-1-yl)phenyl)acetamide] are 81.4% and 28.1%.
With `COc1cc(C)c(S(=O)(=O)N2CCCCC2COCC(=O)N2CCN(CCC#N)CC2)c(C)c1` (stereo not shown) [Example 410, 3-(4-(2-((1-(4-methoxy-2,6-dimethylphenylsulfonyl)piperidin-2-yl)methoxy)acetyl)piperazin-1-yl)propanenitrile], the inhibition at 10 µM is 103% in assay [1] and 102% in assay [2].

(Values after patent publication US8435978B2, “Substituted sulfonamide compounds” (Gruenenthal GmbH, priority 2006, dated 2013).)
